The results in this text go back to patent publication US11666642B2, “PDE5 compositions and methods for immunotherapy” (Obsidian Therapeutics, Inc., priority 2017, dated 2023).

For assay [1], the system named is NIH 3T3 cells. Nature of the assay: Western blot analysis using a GFP antibody, hPDE5 C terminal mutants. Conditions: hPDE5 mutant construct, 24 hours and 48 hours, vs untreated cells. A general note: In western blotting, separated proteins are transferred to a membrane and probed.
Text: All comparisons were made against cells that were not treated with either ligand.
Assay [2] has as its system HEK 293 cells. Nature of the assay: CAR surface expression by Protein L staining, dose and time dependence. The format is cell-based. Conditions: OT-CD19-053 in HEK 293 cells, 24 hours of ligand. The protocol:
The dose dependent regulation of OT-CD19-052 and OT-CD19-053 was measured in HEK 293 cells transfected with 2 ug DNA and stably selected using 2 ug/ml puromycin.
Cells were also treated with ligand for varying durations of time with ligand concentrations shown in Table 45C and Protein L expression was measured using FACS.

In assay [3] the test system is HEK293T cells. Nature of the assay: Effect of linker on DD regulation of IL15-IL15Ra, FACS using the HA antibody. The format is cell-based. Conditions: for Stabilization ratio: 1 μM Vardenafil vs DMSO control; for % HA positive cells, Vardenafil: 1 μM Vardenafil, 24 hours; for % HA positive cells, Control: DMSO control. How it is done: The effect of the type of linker used and the length of the linker on the regulation of the expression of the payload was tested. IL15-IL15Ra fusion constructs were linked to the hPDE5 (R732L) DD using GSGSGS (SEQ ID NO. 8330) as the linker (as in OT-IL15-111), or […] (SEQ ID NO. 8331) as the linker (as in OT-IL15-112) or using […] (SEQ ID NO. 8332) as the linker (as in OT-IL15-113). The IL15 portion of the construct was tagged with a Flag tag while the IL15Ra portion was tagged with a HA tag. These tags allow both the components of the construct to be tracked individually in experiments. […] The properties of the DDs regulated IL15-IL15Ra payloads were analyzed in the presence and absence of ligands via FACS using the HA antibody as previously described.

As a reminder, the EC50 is the concentration that produces a half-maximal response. Higher therefore signals lower potency in that assay. For `CCCc1nn(C)c2c(=O)[nH]c(-c3cc(S(=O)(=O)N4CCN(C)CC4)ccc3OCC)nc12` [Sildenafil], the figures for the “GFP protein levels by western blot” value in assay [1] (0.1 μM ligand) and in assay [1] (1 μM ligand) were “modest stabilization of GFP protein levels” and “stabilization of GFP increased”, respectively. The half-maximal effective concentration (EC50) in assay [2] worked out at 1.5 µM.
For `CCCc1nc(C)c2c(=O)[nH]c(-c3cc(S(=O)(=O)N4CCN(CC)CC4)ccc3OCC)nn12` [Vardenafil], it took 0.025 µM to reach a half-maximal effect in assay [2] (Homo sapiens, HEK293) (EC50).
In the case of “OT-IL15-111: IL15-IL15Ra fusion linked to hPDE5 (R732L) DD using GSGSGS linker”, in assay [3], the Stabilization ratio is reported as 1.69; the “% HA positive cells, Vardenafil” value came to 63.2%; the “% HA positive cells, Control” value is 37.5%.
Consider “OT-IL15-112: IL15-IL15Ra fusion linked to hPDE5 (R732L) DD using GSGSGSGS linker”, for which, in assay [3], the “% HA positive cells, Vardenafil” value came to 74.6% and the “% HA positive cells, Control” value came to 41.6%.
“OT-IL15-113: IL15-IL15Ra fusion linked to hPDE5 (R732L) DD using GSGSGGGSGS linker”: in assay [3], the Stabilization ratio is listed as 1.65; the “% HA positive cells, Vardenafil” value is 69.1%; the “% HA positive cells, Control” value worked out at 42%.
